From patent US9005677B2, “Autophagy enhancer for treatment of neurodegenerative diseases” (Macau University of Science and Technology, priority 2013, dated 2015)

Assays:
PC-12 cells = assay: Cell viability by crystal violet staining; format: cell-based, rat; settings: 24 hours
Description: Cell culture and cytotoxicity assay: The test compound of Onjisaponin B was dissolved in DMSO at a final concentration of 100 mmol/L and stored at −20° C. Cytotoxicity was assessed using the 3-(4,5-dimethylthiazol-2-yl) -2,5-diphenyltetrazolium bromide assay as described previously. PC-12, 4000 cells were seeded on 96-well plates per well. After overnight pre-incubation, the cells were exposed to different concentrations of Onjisaponin B (0.039-100 μmol/L) for 2 days. Subsequently, 10 μL of MTT reagents was added to each well and incubated at 37° C. for 4 hours followed by the addition of 100 μL solubilization buffer (10% SDS in 0.01 mol/L HCl) and overnight incubation. Absorbance at 585 nm was determined from each well the next day. For cell viability assay measured by crystal violet staining, PC-12 cells were incubated in 35 mm disc followed by the addition of Onjisaponin B at the indicated concentrations for 24 hours. The cells were then incubated with crystal violet for 10 minutes followed by a ddH2O wash. […] Cell viability was quantified by dissolving the stained cells in 10% acetic acid (200 μL/well). The colorimetric reading of the solute mixture was then determined by spectrophotometer at OD 560 nm The percentage of cell viability was calculated using the following formula: Cell viability (%)=Cells number treated/Cells number DMSO control×100. […]

[1] = test system: P-AMPK and P-p70S6K in PC12 cells; assay: Western blot of mTOR signaling marker proteins; format: cell-based, rat
Description: Detection of mTOR signaling marker proteins. PC12 cells treated with indicated time and concentrations of Onjisaponin B were harvested and lysed in RIPA buffer (Cell Signaling). The cell lysates were then resolved by SDS-PAGE. After electrophoresis, the proteins from SDS-PAGE were transferred to nitrocellulose membrane which was then blocked with 5% non-fat dried milk for 60 minutes. The membrane was then incubated with P-p70S6K, p70S6K, P-AMPK, AMPK primary antibodies (1:1000) in TBST overnight at 4° C. respectively. After that, the membrane was further incubated with HRP-conjugated secondary antibodies for 60 minutes. Finally, protein bands were visualized by using the ECL Western Blotting Detection Reagents (Invitrogen).

[2] = test system: GFP-LC3 puncta formation in PC12 cells; assay: Quantification of autophagy GFP-LC3 puncta; format: cell-based, rat; settings: fluorescent microscopy
Description: (§1) Quantification of autophagy GFP-LC3 Puncta. GFP-LC3 puncta formation was quantified as described previously. In brief, cells grown on coverslips in a 6-well plate were fixed in 4% paraformaldehyde for 20 minutes at room temperature and then rinsed with PBS. Slides were mounted with FluorSave™ mounting media (Calbiochem, San Diego, Calif.) and examined by fluorescence microscopy. The number of GFP-positive cells with GFP-LC3 puncta formation was examined under the Nikon ECLIPSE 80i microscope. Representative images were captured with CCD digital camera Spot RT3™ (Diagnostic Instruments, Inc., Melville, N.Y.). To quantify autophagy, the percentage of cells with punctate GFP-LC3 fluorescence was calculated by counting the number of the cells with punctate GFP-LC3 fluorescence in GFP-positive cells. A minimum of 150 cells from 3 randomly selected fields was scored.

[3] = test system: PC12 cells expressing GFP-LC3; assay: GFP-LC3 puncta in the presence of specific inhibitors; format: cell-based, rat; settings: 12 hours
Description: Quantification of Onjisaponin B-mediated autophagy in the presence of specific inhibitors. GFP-LC3 puncta formation was quantified as described previously. In brief, PC12 cells expressing GFP-LC3 were treated with Onjisaponin B (Onji, 25 μM) in the presence of AMPK inhibitor (compound C) (CC, 5 μM) or 3-Methyladenine (3-MA, 5 mM) for 12 hours. The cells were then fixed in 4% paraformaldehyde for 20 minutes at room temperature and then rinsed with PBS. Slides were mounted with FluorSave™ mounting media (Calbiochem) and examined by fluorescence microscopy. To quantify for autophagy, the percentage of cells with punctate GFP-LC3 fluorescence was calculated by counting the number of the cells with punctate GFP-LC3 fluorescence in GFP-positive cells. A minimum of 150 cells from 3 randomly selected fields was scored.

[4] = test system: Doxycycline-inducible PC-12 cell lines transfected with mutant A53T α-synuclein; assay: Cell death by flow cytometry (Annexin V / propidium iodide) in PC-12 cells expressing mutant A53T α-synuclein; format: cell-based, rat; settings: 50 μM, 24 h after doxycycline removal
Description: Flow cytometry analysis: Doxycycline-inducible PC-12 cell lines transfected with mutant A53T α-synuclein were induced with doxycycline (1 μg/mL) for 24 h and the expression of transgene was then switched off by the removal of doxycycline. Cells were then treated with Onjisaponin B (50 μM) for a further 24 h after doxycycline removal. The control group (Ctrl) contained cells without the addition of doxycycline, while the Dox group contained cells with the removal of doxycycline (1 μg/mL) after 24 h of induction but without treatment of Onjisaponin B. Cell death was then assessed by flow cytometry using Annexin V staining kit and Propidium iodide staining. Data from the bar chart represented the means±S.D. of three independent experiments. **p<0.01; *p<0.05. Flow cytometry was carried out using a FACSCalibur flow cytometer. Data acquisition and analysis were performed with CellQuest.

[5] = test system: Atg7 wild-type mouse embryonic fibroblasts; assay: GFP-LC3 puncta in Atg7 wild-type MEFs; format: cell-based
Description: as §1, with “autophagy GFP-LC3 Puncta in Atg7 wild type and deficient MEFs. GFP-LC3 puncta” for “autophagy GFP-LC3 Puncta. GFP-LC3 puncta”, “In brief, both Atg7 wild-type and deficient mouse embryonic fibroblasts (MEFs) grown on” for “In brief, cells grown on”, “plate were treated with indicated concentrations of Onjisaponin B. The cells were then fixed in” for “plate were fixed in”, “To quantify for autophagy, the” for “To quantify autophagy, the”

## COc1ccc(/C=C/C(=O)O[C@@H]2[C@H](O[C@@H]3O[C@@H](C)[C@H](O)[C@@H](O)[C@H]3O)[C@@H](O[C@@H]3O[C@@H](C)[C@H](O[C@@H]4OC[C@@H](O[C@@H]5O[C@H](CO)[C@H](O)[C@H](O)[C@H]5O)[C@H](O)[C@H]4O)[C@@H](O)[C@H]3O)[C@H](OC(=O)[C@]34CCC(C)(C)C[C@H]3C3=CC[C@@H]5[C@@]6(C)C[C@H](O)[C@H](O[C@@H]7O[C@H](CO)[C@@H](O)[C@H](O)[C@H]7O)[C@@](C)(C(=O)O)[C@@H]6CC[C@@]5(C)[C@]3(CO)CC4)O[C@@H]2C)cc1 [Onjisaponin B]
PC-12 cells
  Morphological damage in PC12 cells (crystal violet assay): no significant morphological damage
[1]; 25 μM at 8, 16, 24 hour, 3, 6.25, 12.5, 25 μM at 24 hour
  Phosphorylation of AMPK: activate the phosphorylation of AMPK in a time dependent manner
[1]; same treatments as AMPK blot
  p70S6K phosphorylation: concomitant reduction in its downstream p70S6K phosphorylation
[2]
  GFP-LC3 puncta formation: increased the formation of GFP-LC3 puncta formation in a dose dependent manner
[3]; Onjisaponin B 25 μM + 3-MA 5 mM
  Onjisaponin B-induced GFP-LC3 puncta formation in the presence of 3-Methyladenine: significant reduction
[3]; Onjisaponin B 25 μM + compound C 5 μM
  Onjisaponin B-induced GFP-LC3 puncta formation in the presence of AMPK inhibitor (compound C): significant reduction
[4]
  Toxicity in PC-12 cells expressing mutant A53T α-synuclein (cell death, flow cytometry): reduced toxicity
[5]
  GFP-LC3 puncta formation in wild type Atg7 cells: induce GFP-LC3 puncta formation
